The source of these data is US9339508B2, “Use of 3-methoxy-pregnenolone for the preparation of a drug for treating a traumatic brain injury” (MAPREG, priority 2003, dated 2016).

One data set has as its system MAP2. Briefly: Western blot of MAP2 in cortex and hippocampus after CCI. The format is in vivo, rat. The note with it: day 35, 20 mg/kg, first injection 2 h post-trauma, injured and non-injured cortex and hippocampus. As to the method:
(§1) CCI was performed with an electromagnetic impact device as described (MyNeurolab, St. Louis, Mo.; Brody et al, 2007). Anesthesized rats were subjected to a single right lateral CCI, with the following parameters impact centered 4.0 mm anterior to lambda and 4.5 mm […] of midline, within the craniotomy of the animal. The impact was set at a velocity of 4 m/s with a sustained depression of 200 ms, using a 5.0 mm tip.
(§2) Samples were analyzed by Western-blot at day 35 post-trauma (D35) to evaluate the effects of MAP4343 on: MAP2 (the target of MAP4343 and a modulator of microtubule function), the post-synaptic markers PSD95 and spinophilin, the pre-synaptic marker synaptophysin, and the axonal growth/integrity marker […].
(§3) Western blot was performed on cortex and hippocampus of TBI-injured animals receiving the first injection of MAP4343 (at 10 mg/kg or 20 mg/kg) or vehicle (sesame oil) 2 h after injury.
(§4) The expression level of various neuronal brain markers of plasticity was measured at day 35 post-trauma by western-blots in the cortex and hippocampus of left uninjured and right injured cerebral hemispheres of CCI traumatized animals receiving either vehicle (sesame oil, CCI-D0) or 3-methoxy-PREG (MAP4343) at 10 mg/kg (CCI-D1) or 20 mg/kg (CCI-D2), with first MAP4343 injection 2 h post-trauma.

Data set [1] in a line: MAP4343 in the brain after TBI (CHI, LFP, CCI) by LC-MS/MS. The format is in vivo, rat. The note with it: 6 h after CHI, LFP or CCI, 4 h after single subcutaneous injection. As to the method:
MAP4343 was dissolved in sesame oil and injected sub-cutaneously. Two distinct doses of MAP4343 (10 and 20 mg/kg) were tested in each model. The injection took place 2 h after trauma.
In order to establish whether TBI modifies the passage of MAP4343 into the brain, MAP4343 was measured by liquid chromatography associated to tandem mass spectrometry (LC-MS/MS) in the brain of animals sacrificed 6 h after CHI, LFP or CCI (4 h after MAP4343 single injection).
In order to establish whether TBI modifies the passage of 3-methoxy-PREG (MAP434) into the brain, MAP4343 was measured by liquid chromatography coupled to tandem mass spectrometry LC-MS/MS in the brain of animals sacrificed 6 h after CHI, LFP or CCI (4 h. after MAP4343 injection).

Data set [2] deals with rats subjected to spinal cord compression. Put plainly: Spinal cord compression model, BBB score. It is filed as in vivo, rat. The note with it: 12 mg/kg/day subcutaneous for 2 weeks; as of post-operation day 7. As for the experimental part:
FIG. 7: Effect of molecule 43B on locomotor recovery following spinal cord compression in rats. Animal locomotion was evaluated in a blind format during the 1-28 day post-operative period using the BBB score which evaluates the degree of paralysis (higher values correspond to better recovery). Statistical significance: * indicates p<0.001; ** indicates p<0.0001.
To determine the neuroprotective effects of the molecules tested, a spinal cord compression model is used. This model involves the total paralysis of the animals in the first few days following the operation. This period of paralysis is followed of a phase of approximately three weeks during which the animals partially recover their motor function. The study of this recovery using a simple and precise functional test based on observation of the animals (the BBB score) makes it possible to study the speed and the degree of recovery of the animals, with and without treatment.
Two groups of rats were subjected to spinal cord compression. Then, daily for 2 weeks, the animals received a subcutaneous injection containing either sesame oil alone (control group, n=20), or sesame oil containing molecule 43B (43B group, n=20; 12 mg/kg/day). The first injection was given 5 minutes after spinal cord compression. Locomotion of the animals, using BBB scores, was evaluated in a blind format on post-operation days 1, 4, 7, 14, 21, and 28. […]

Data set [3] has as its target T1, microtubule-associated MAP2 (Rattus norvegicus, UniProt P15146).
T1 construct: endogenous in cells; host or cells: PC12 cells
Briefly: Immunolabeling of microtubule-associated MAP2 in PC12 cells. It is filed as cell-based. The note with it: 20 μM, NGF 10 ng/ml. From the text:
They were fixed and exposed to anti-MAP2 antibodies that reveal microtubule-associated MAP2 esclusively.
To rest the effect of selected molecules on neuritic growth, we first used the PC12 line, which has long been employed in neurobiological research. In the presence of NOF (nerve growth factor), the cells of this line, which arise from a rat pheochromocytoma, form neuritic extensions containing MAP-associated microtubules. The growth of these elongations is stimulated by the addition of PREG. […] The screening of other natural or synthetic steroids made it possible to select several molecules presenting greater effects than that of PRIG (FIG. 2). In particular, the addition of molecule 43B, which can be synthesized easily from PRIG, caused a spectacular increase (reaching as high as 500%) in the length of neurites formed in the presence of NOF (FIG. 3). This neurite growth accompanies the stimulation by 43-3 of the association of MAP2 to the microtubules (FIG. 4).

A further data set has as its system Sprague Dawley rats. Briefly: Forced swimming test (FST). The format is in vivo, rat. The note with it: 10 mg/kg subcutaneously, 24, 5, 1 h before testing. As for the experimental part: Drugs were administered following the traditional dosing regimen used in the FST consisting of three injections: 24, 5, 1 h before testing.
The FET is currently the most widely used animal model for assessing depression related behavior and antidepressant drug activity in rodents (Cryan et al., Neubiorev. 2005). Rats are placed in an inescapable cylinder of water where they develop an immobile posture believed to reflect a “depressive”-like state. The Lime rats spend immobile is decreased by drugs exerting antidepressant activity.
Additional behaviors can be detected in the FST; namely, climbing and swimming. It has been shown that swimming behavior is sensitive to SSRIs such as fluoxetine whereas climbing is sensitive to norepinephrine re-uptake inhibitors (NRI) such as desipramine.

For data set [4], the system named is α-tubulin in rat hippocampus. Briefly: Microtubule dynamics in rat hippocampus (Tyr/Glu-Tub ratio, Acet-Tub). It is filed as in vivo. The note with it: 10 mg/kg subcutaneously, single administration. From the text:
Mean±SEM, n=6 per group. **P<0.01, *P<0.5 vs sesame oil.
The effects produced by neurosteroids were compared with those produced by acute administration of the antidepressant drug fluoxetine (selective serotonin reuptake inhibitor SSRI).
Neurosteroids and 3-Methoxy-PREG (43B) Levels

The test system of a further data set is GAP43. Put plainly: Western blot of GAP43 in cortex and hippocampus after CCI. The format is in vivo, rat. Conditions: day 35, injured cortex (20 mg/kg only), hippocampus and non-injured cortex (both doses). As to the method: as §1, §2, §3, §4

T1 sequence (P15146 whole entry): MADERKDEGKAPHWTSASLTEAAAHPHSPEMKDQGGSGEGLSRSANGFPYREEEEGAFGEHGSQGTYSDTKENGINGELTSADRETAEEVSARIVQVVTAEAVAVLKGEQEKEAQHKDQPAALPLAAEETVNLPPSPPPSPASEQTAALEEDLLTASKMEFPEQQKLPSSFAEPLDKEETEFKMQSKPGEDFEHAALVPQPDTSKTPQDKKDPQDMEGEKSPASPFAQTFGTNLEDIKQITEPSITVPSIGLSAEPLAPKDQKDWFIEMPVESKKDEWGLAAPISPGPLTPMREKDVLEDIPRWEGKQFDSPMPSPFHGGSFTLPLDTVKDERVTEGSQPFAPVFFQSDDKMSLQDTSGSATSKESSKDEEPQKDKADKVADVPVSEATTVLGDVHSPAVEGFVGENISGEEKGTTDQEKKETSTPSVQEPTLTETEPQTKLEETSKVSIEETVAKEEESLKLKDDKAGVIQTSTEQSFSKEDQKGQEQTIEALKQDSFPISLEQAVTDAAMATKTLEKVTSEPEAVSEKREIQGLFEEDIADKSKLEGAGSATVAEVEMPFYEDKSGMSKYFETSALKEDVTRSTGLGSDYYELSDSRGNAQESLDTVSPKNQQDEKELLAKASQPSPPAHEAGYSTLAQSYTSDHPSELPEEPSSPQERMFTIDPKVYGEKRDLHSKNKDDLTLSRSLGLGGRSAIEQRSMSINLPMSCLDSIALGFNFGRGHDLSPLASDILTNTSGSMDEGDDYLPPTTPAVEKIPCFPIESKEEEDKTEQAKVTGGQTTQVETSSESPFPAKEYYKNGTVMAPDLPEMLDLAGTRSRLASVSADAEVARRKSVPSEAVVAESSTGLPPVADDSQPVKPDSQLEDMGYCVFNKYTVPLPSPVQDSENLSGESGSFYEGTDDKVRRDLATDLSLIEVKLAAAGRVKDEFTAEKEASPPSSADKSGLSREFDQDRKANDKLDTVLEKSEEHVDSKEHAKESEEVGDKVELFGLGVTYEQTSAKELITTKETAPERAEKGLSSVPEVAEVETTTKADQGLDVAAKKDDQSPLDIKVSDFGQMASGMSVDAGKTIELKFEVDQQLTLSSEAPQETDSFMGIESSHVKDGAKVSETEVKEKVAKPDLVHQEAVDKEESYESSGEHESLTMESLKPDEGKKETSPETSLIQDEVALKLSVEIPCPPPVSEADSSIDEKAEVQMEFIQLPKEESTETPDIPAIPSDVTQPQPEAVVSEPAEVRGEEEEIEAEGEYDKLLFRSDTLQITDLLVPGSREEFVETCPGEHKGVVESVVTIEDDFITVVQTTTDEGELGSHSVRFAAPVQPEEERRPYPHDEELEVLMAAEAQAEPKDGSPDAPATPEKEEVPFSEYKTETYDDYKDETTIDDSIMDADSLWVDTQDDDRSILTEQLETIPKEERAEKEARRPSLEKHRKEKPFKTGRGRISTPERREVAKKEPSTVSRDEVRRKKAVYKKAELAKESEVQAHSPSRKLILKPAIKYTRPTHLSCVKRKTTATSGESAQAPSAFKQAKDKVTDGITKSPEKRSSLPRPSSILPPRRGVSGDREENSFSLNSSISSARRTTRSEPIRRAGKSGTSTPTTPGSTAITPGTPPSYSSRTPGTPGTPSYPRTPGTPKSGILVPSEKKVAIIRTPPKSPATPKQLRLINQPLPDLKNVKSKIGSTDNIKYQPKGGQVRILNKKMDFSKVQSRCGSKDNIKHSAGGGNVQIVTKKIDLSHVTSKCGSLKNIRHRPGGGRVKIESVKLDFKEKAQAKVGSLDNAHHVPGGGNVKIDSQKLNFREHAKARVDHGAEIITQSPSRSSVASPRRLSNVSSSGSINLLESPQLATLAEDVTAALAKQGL

Consider `CO[C@H]1CC[C@@]2(C)C(=CC[C@H]3[C@@H]4CC[C@H](C(C)=O)[C@@]4(C)CC[C@@H]32)C1` [3-methoxy-PREG, 3β-methoxy-pregna-5-ene-20-one], for which, in the data set with MAP2, the MAP2 expression entry was “strong increase of MAP-2”. In data set [1], the “concentrations of MAP4343 that reach the brain” value was “concentrations of MAP4343 of significant therapeutic interest reach the brain”. The “locomotion, BBB score” value in data set [2] is reported as “quite significantly higher than the control animals”. Besides, the “association of MAP2 to the microtubules” value in data set [3] is recorded as “stimulation”. Also, in the data set with Sprague Dawley rats, the “rat climbing behavior in the FST” value is “not changed”, the “rat immobility in the FST” value is reported as “significantly decreased” and the “rat swimming in the FST” value was “significantly increased”. Moreover, in data set [4], the “Acet-Tub (stable acetylated α-tubulin)” value is listed as “significantly decreased”. Further, the Tyr/Glu-Tub ratio result in data set [4] (3 h) is on record as “significantly increased”. In addition, in the data set with GAP43, the GAP-43 expression entry is “increased GAP-43 expression”.
